Measured values published in patent publication US9815851B2, “Pyrrolo carboxamides as modulators of orphan nuclear receptor RAR-related orphan receptor-gamma (RORγ, NR1F3) activity and for the treatment of chronic inflammatory and autoimmune diseases” (PHENEX PHARMACEUTICALS AG, priority 2011, dated 2017).
Read-outs that look alike come from different tables or passages of the source.

Experiments:
[1] = target: T1, RORγ (UniProt P51449); assay: RORγ Gal4 Reporter Gene Assay in 293T cells (firefly and renilla luciferase); assay type: cell-based, human
T1 sequence (P51449 1-518): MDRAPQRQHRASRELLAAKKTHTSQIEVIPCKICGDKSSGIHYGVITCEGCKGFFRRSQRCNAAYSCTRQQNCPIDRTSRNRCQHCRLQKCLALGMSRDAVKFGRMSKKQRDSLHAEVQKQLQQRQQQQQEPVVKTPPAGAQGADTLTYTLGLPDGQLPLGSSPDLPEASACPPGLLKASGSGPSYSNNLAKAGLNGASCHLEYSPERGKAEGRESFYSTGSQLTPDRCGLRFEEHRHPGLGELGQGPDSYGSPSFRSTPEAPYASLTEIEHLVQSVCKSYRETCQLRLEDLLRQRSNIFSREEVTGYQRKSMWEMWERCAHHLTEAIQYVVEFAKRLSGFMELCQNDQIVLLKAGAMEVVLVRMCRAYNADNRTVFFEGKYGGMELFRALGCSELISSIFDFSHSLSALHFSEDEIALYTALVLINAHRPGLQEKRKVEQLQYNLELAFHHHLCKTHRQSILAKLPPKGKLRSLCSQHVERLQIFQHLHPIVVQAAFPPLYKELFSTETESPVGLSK

[2] = target: T2, RORγ ligand binding domain (LBD) (Homo sapiens, UniProt P51449); assay: TR-FRET Activity Assay (ligand sensing, RORγ-LBD / coactivator peptide interaction, LANCE); assay type: biochemical
T2 construct: made in house; host or cells: E. coli BL-21 (BL3), vector pDEST15
T2 sequence (P51449 269-508 limits assumed): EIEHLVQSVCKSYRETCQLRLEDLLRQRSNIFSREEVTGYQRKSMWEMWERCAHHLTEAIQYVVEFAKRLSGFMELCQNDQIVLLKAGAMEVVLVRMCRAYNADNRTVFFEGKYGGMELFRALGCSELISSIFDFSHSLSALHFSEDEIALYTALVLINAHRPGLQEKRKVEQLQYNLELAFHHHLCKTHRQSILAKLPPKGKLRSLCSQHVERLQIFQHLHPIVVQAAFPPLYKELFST

[3] = second value of the cell, Gal4 reporter gene assay in 293T cells, firefly luciferase
[4] = third value of the cell, Gal4 reporter gene assay in 293T cells, renilla normalised luciferase
[5] = first value of the cell FRET/FF/REN, TR-FRET activity assay, read-out: pIC50 (FRET) (converted)

pIC50 (FF) [1, 3] | pIC50 (REN) [1, 4] | IC50 [2, 5] | Compound | pIC50 (FF) [1] | pIC50 (REN) [1] | IC50 [2]
7.7 | 7.6 | 2000 nM | Cc1c(C(=O)NCC2(C(N)=O)CCOCC2)cc(-c2cc(C(C)(C)O)cc(C3(C)CC3)c2)n1CC1CCCCC1 [17/318] | – | – | –
6.5 | 6.6 | 2000 nM | Cc1c(C(=O)NCC2(O)CCS(=O)(=O)CC2)cc(-c2cc(C(C)(C)O)cc(C3(C)CC3)c2)n1CC1CCCCC1 [17/319] | – | – | –
– | – | – | Cc1c(C(=O)NCC2CCS(=O)(=O)CC2)cc(-c2cc(C(C)(C)O)cc(C3(C)CC3)c2)n1CC1CCCCC1 [17/320] | 5.8/7.3/7.3 | 5.8/7.3/7.3 | 1580 nM
7.3 | 7.3 | 1000 nM | Cc1c(C(=O)NC2CCS(=O)(=O)CC2)cc(-c2cc(C(C)(C)O)cc(C3(C)CC3)c2)n1CC1CCCCC1 [17/321] | – | – | –
5.9 | 6.0 | 3980 nM | Cc1c(C(=O)NC2CCOCC2)cc(-c2cc(C(=O)NC(C)(C)C)cc(C(C)(C)O)c2)n1CC1CCCCC1 [17/322] | – | – | –
5.6 | 5.7 | 7940 nM | Cc1c(C(=O)NC2CCOCC2)cc(-c2cc(C(=O)NC(C)C)cc(C(C)(C)O)c2)n1CC1CCCCC1 [17/323] | – | – | –
– | – | – | COC(C)(C)c1cc(C(=O)NC(C)(C)C)cc(-c2cc(C(=O)NC3CCOCC3)c(C)n2CC2CCCCC2)c1 [17/324] | 5.5/6.8/6.8 | 5.5/6.8/6.8 | 3160 nM
– | – | – | COC(C)(C)c1cc(-c2cc(C(=O)NC3CCOCC3)c(C)n2CC2CCCCC2)cc2c1OCCC21CC1 [17/325] | 5.6/7.1/7.2 | 5.6/7.1/7.2 | 2510 nM
7.8 | 7.9 | 1000 nM | Cc1c(C(=O)N[C@H]2C[C@H](C(=O)O)C2)cc(-c2cc(C(C)(C)C)cc(C3(C)CC3)c2)n1CC1CCCCC1 [17/326] | – | – | –
6.8 | 6.9 | 794 nM | Cc1c(C(=O)NCC(C)(C)C(=O)O)cc(-c2ccc(S(=O)(=O)NC(C)(C)C)c(C(C)(C)O)c2)n1CC1CCCCC1 [17/327] | – | – | –
6.6 | 6.6 | 501 nM | Cc1c(C(=O)N[C@H]2C[C@H](C(=O)O)C2)cc(-c2ccc(S(=O)(=O)NC(C)(C)C)c(C(C)(C)O)c2)n1CC1CCCCC1 [17/328] | – | – | –
6.8 | 6.9 | 2510 nM | Cc1c(C(=O)NCC(C)(C)C(=O)O)cc(-c2cc(C(=O)NC(C)(C)C)cc(C(C)(C)C)c2)n1CC1CCCCC1 [17/329] | – | – | –
7.3 | 7.4 | 2510 nM | Cc1c(C(=O)N[C@H]2C[C@H](C(=O)O)C2)cc(-c2cc(C(=O)NC(C)(C)C)cc(C(C)(C)C)c2)n1CC1CCCCC1 [17/330] | – | – | –
6.6 | 6.5 | 1260 nM | Cc1c(C(=O)NCCc2noc(=O)[nH]2)cc(-c2ccc(S(=O)(=O)NC(C)(C)C)c(C(C)(C)C)c2)n1CC1CCCCC1 [17/331] | – | – | –
6.4 | 6.4 | 200 nM | Cc1c(C(=O)NCCc2noc(=O)[nH]2)cc(-c2ccc(S(=O)(=O)NC(C)(C)C)c(C(F)(F)F)c2)n1CC1CCCCC1 [17/332] | – | – | –
6.4 | 6.3 | 398 nM | Cc1c(C(=O)NCCc2noc(=O)[nH]2)cc(-c2ccc(S(=O)(=O)NC(C)(C)C)c(C(C)(C)O)c2)n1CC1CCCCC1 [17/333] | – | – | –
5.8 | 5.9 | 1260 nM | Cc1c(C(=O)NCCc2nn[nH]n2)cc(-c2ccc(S(=O)(=O)NC(C)(C)C)c(C(C)(C)C)c2)n1CC1CCCCC1 [17/334] | – | – | –
5.5 | 5.6 | 316 nM | Cc1c(C(=O)NCCc2nn[nH]n2)cc(-c2ccc(S(=O)(=O)NC(C)(C)C)c(C(F)(F)F)c2)n1CC1CCCCC1 [17/335] | – | – | –
< 4.7 | < 4.7 | 1000 nM | Cc1c(C(=O)NCCc2nn[nH]n2)cc(-c2ccc(S(=O)(=O)NC(C)(C)C)c(C(C)(C)O)c2)n1CC1CCCCC1 [17/336] | – | – | –

pIC50 (FF) [1, 3] | pIC50 (REN) [1, 4] | IC50 [2, 5] | Compound | pIC50 (FF) [1] | pIC50 (REN) [1] | IC50 [2]
7.2 | 7.2 | 3160 nM | Cc1c(C(=O)NCC(C)(C)C(=O)O)cc(-c2cc(C(=O)NC(C)(C)C)cc(C3(C)CC3)c2)n1CC1CCCCC1 [17/338] | – | – | –
7.6 | 7.7 | 1260 nM | Cc1c(C(=O)N[C@H]2C[C@H](C(=O)O)C2)cc(-c2cc(C(=O)NC(C)(C)C)cc(C3(C)CC3)c2)n1CC1CCCCC1 [17/339] | – | – | –
7.1 | 7.1 | 1580 nM | Cc1c(C(=O)NCCC(C)(C)C(=O)O)cc(-c2cc(C(=O)NC(C)(C)C)cc(C3(C)CC3)c2)n1CC1CCCCC1 [17/340] | – | – | –
– | – | – | Cc1c(C(=O)NCC2(O)CCOCC2)cc(-c2cc(C(=O)NC(C)(C)C)cc(C3(C)CC3)c2)n1CC1CCCCC1 [17/341] | 6.1/7.4/7.6 | 6.1/7.4/7.6 | 794 nM
7.3 | 7.5 | 631 nM | Cc1c(C(=O)N2CC(N3CCOCC3)C2)cc(-c2cc(C(C)(C)C)cc(C3(C)CC3)c2)n1CC1CCCCC1 [17/344] | – | – | –
7.3 | 7.4 | 316 nM | Cc1c(C(=O)NCC2CCN(S(C)(=O)=O)CC2)cc(-c2cc(C(C)(C)C)cc(C3(C)CC3)c2)n1CC1CCCCC1 [17/345] | – | – | –
– | – | – | Cc1c(C(=O)NCCN2CCN(C)CC2)cc(-c2cc(C(C)(C)C)cc(C3(C)CC3)c2)n1CC1CCCCC1 [17/346] | 5.3/<4.7/<4.7 | 5.3/<4.7/<4.7 | 5010 nM
6.5 | 6.5 | 398 nM | Cc1c(C(=O)NCCN2CCN(S(C)(=O)=O)CC2)cc(-c2cc(C(C)(C)C)cc(C3(C)CC3)c2)n1CC1CCCCC1 [17/347] | – | – | –
6.9 | 7.0 | 316 nM | Cc1c(C(=O)NCC(C)(C)O)cc(-c2cc(OC(F)(F)F)cc(C3(C)CC3)c2)n1CC1CCCCC1 [17/348] | – | – | –
6.8 | 6.8 | 631 nM | Cc1c(C(=O)NCC(C)(C)O)cc(-c2cc(OC(F)(F)F)cc(C(=O)NC(C)(C)C)c2)n1CC1CCCCC1 [17/349] | – | – | –
7.7 | 7.7 | 1000 nM | Cc1c(C(=O)N[C@H]2C[C@H](C(=O)O)C2)cc(-c2cc(OC(F)(F)F)cc(C3(C)CC3)c2)n1CC1CCCCC1 [17/350] | – | – | –
7.5 | 7.5 | 631 nM | Cc1c(C(=O)NC2CCOCC2)cc(-c2cc(C(=O)NCC(F)(F)F)cc(C3(C)CC3)c2)n1CC1CCCCC1 [17/352] | – | – | –
6.8 | 6.8 | 2000 nM | Cc1c(C(=O)NCC(C)(C)C(=O)O)cc(-c2cc(C(C)(C)C)nc(C(C)(C)C)n2)n1CC1CCCCC1 [17/353] | – | – | –
7.0 | 7.0 | 1000 nM | Cc1c(C(=O)N[C@H]2C[C@H](C(=O)O)C2)cc(-c2cc(C(C)(C)C)nc(C(C)(C)C)n2)n1CC1CCCCC1 [17/354] | – | – | –
– | – | – | Cc1c(C(=O)NCC(C)(C)O)cc(-c2cc(C3(C)CC3)nc(C(C)(C)C)n2)n1CC1CCCCC1 [17/355] | 6.5/6.6/6.6 | 6.5/6.6/6.6 | 316 nM
6.7 | 6.8 | 2000 nM | Cc1c(C(=O)N[C@H]2C[C@H](C(=O)O)C2)cc(-c2cc(C(=O)NCC(F)(F)F)cc(C3(C)CC3)c2)n1CC1CCCCC1 [17/357] | – | – | –
6.3 | 6.2 | 1000 nM | Cc1c(C(=O)N[C@H]2C[C@H](C(=O)O)C2)cc(-c2cc(C(=O)N[C@@H](C)C(F)(F)F)cc(C3(C)CC3)c2)n1CC1CCCCC1 [17/358] | – | – | –
7.4 | 7.4 | 3160 nM | Cc1c(C(=O)N[C@H]2C[C@H](C(=O)O)C2)cc(-c2cc(C(=O)N[C@H](C)C(F)(F)F)cc(C3(C)CC3)c2)n1CC1CCCCC1 [17/359] | – | – | –
7.3 | 7.4 | 6310 nM | Cc1c(C(=O)N[C@H]2C[C@H](C(=O)O)C2)cc(-c2cc(C(=O)NC(C)(C)C(F)(F)F)cc(C3(C)CC3)c2)n1CC1CCCCC1 [17/360] | – | – | –

Compound | pIC50 (FF) [1, 3] | pIC50 (REN) [1, 4] | IC50 [2, 5] | pIC50 (FF) [1] | pIC50 (REN) [1] | IC50 [2]
Cc1c(C(=O)NC2CCOCC2)cc(-c2cc(C(=O)NC(C)(C)C)cc(C3(C)CC3)c2)n1CC1CCCCC1 [17/337] | 7.7 | 7.8 | 1000 nM | – | – | –
Cc1c(C(=O)N[C@H]2C[C@H](C(=O)O)C2)cc(-c2cc(OC(F)(F)F)cc(C(=O)NC(C)(C)C)c2)n1CC1CCCCC1 [17/351] | 6.8 | 6.9 | 2000 nM | – | – | –
Cc1c(C(=O)NCC(C)(C)O)cc(-c2cc(C(C)(C)C)nc(C3(C)CC3)n2)n1CC1CCCCC1 [17/356] | 6.7 | 6.7 | 398 nM | – | – | –
